# The source made the active and inactive calls. The calls are words filed in the database; no cut-off is given here.
# Experiments:
# [1] = Inhibition of sarcoplasmic/endoplasmic reticulum calcium ATPase at upto 100 uM
# [2] = Inhibition of sarcoplasmic/endoplasmic reticulum calcium ATPase at upto 10 uM
SMILES,Activity [1],Activity [2]
C=C1CC[C@@H]2[C@@H](OC(=O)[C@@]2(C)OC(=O)/C(C)=C\C)[C@@H]2C(C)=CC[C@H]12,inactive,–
C=C1CC[C@@H]2[C@@H](OC(=O)[C@@]2(C)OC(=O)/C(C)=C/C)[C@H]2[C@@H]1C[C@@H](OC(C)=O)[C@@]2(C)O,inactive,–
C=C1CC[C@@H]2[C@@H](OC(=O)[C@@]2(C)OC(=O)/C(C)=C\C)[C@H]2[C@@H]1C[C@@H](OC(C)=O)[C@@]2(C)O,inactive,–
C=C1C(=O)O[C@@H]2[C@H]1CC[C@]1(C)[C@@H]3O[C@@H]3[C@H](OC(=O)CC(C)C)C(=C)[C@@H]21,inactive,–
C/C=C(/C)C(=O)O[C@]1(C)C(=O)O[C@H]2[C@@H]3C(C)=CC[C@@H]3[C@@](C)(O)CC[C@H]21,inactive,–
C=C1C(=O)O[C@@H]2[C@H]1CC[C@]1(C)[C@@H]3O[C@@H]3[C@H](OC(=O)C=C(C)C)C(=C)[C@@H]21,inactive,inactive

# Reference: ChEMBL document CHEMBL1158100, “Sesquiterpenes from Thapsia nitida var. meridionalis and Thapsia nitida var. nitida” (J Nat Prod, 2006)
